What all share (type): biochemical
For one test, the target named is T1, α subunit Prkaa2 of Ampk (Mus musculus, UniProt Q8BRK8).
T1 construct: endogenous catalytic subunit of AMPK in mouse heart lysate
Put plainly: HT-PELSA limited trypsin proteolysis MS, dose-response. The note with it: mouse heart lysate in PBS, 25 °C, 30 min, 0.2 nM-20 μM.

A further test deals with T2, Csn1ke (Mus musculus, UniProt Q9JMK2).
T2 construct: gene Csnk1e; endogenous protein in mouse heart lysate; printed Csn1ke read as Csnk1e
T2 sequence (Q9JMK2 1-416): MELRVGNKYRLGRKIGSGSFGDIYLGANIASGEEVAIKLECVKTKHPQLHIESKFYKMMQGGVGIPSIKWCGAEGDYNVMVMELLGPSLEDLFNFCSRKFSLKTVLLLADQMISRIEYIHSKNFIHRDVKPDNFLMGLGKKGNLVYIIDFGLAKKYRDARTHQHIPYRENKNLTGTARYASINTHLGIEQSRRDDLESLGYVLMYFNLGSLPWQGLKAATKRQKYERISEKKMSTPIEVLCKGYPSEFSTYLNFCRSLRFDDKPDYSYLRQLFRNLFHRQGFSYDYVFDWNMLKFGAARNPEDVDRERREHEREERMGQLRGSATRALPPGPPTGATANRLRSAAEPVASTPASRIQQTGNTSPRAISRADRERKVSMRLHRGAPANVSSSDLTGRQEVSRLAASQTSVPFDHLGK
The test is described as above. The note with it: mouse heart lysate in PBS, 25 °C, 30 min, 0.2 nM-20 μM.

Another test concerns the target T3, mrcB (Escherichia coli, UniProt P02919).
T3 construct: endogenous membrane protein in crude E. coli lysate
T3 sequence (P02919 1-844): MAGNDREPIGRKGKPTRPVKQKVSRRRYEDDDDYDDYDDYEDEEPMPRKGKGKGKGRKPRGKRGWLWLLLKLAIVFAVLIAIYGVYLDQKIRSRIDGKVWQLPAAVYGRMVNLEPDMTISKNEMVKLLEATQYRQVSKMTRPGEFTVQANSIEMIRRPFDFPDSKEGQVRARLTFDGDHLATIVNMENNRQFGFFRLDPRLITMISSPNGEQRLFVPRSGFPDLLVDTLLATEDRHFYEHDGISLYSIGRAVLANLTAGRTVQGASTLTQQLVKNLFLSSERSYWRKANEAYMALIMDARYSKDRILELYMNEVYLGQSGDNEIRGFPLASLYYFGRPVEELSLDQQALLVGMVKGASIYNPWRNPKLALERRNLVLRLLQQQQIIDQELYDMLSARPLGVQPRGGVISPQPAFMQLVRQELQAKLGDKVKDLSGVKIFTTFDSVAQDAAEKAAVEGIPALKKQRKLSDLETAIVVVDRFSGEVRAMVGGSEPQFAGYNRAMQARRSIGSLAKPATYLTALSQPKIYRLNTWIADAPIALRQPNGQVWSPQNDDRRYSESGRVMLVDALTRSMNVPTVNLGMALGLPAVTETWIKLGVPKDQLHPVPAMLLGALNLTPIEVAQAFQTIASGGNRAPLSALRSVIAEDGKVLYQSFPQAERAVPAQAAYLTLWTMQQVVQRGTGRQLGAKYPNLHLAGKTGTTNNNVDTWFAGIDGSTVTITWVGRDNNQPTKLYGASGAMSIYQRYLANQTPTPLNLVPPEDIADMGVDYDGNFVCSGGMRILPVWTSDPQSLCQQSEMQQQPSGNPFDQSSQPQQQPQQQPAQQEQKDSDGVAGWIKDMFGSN
Put plainly: HT-PELSA limited trypsin proteolysis MS, single concentration. The note with it: crude E. coli lysate, 10 μM ampicillin, 25 °C, 30 min; C-terminal transpeptidase domain.

For another test, the target named is T4, mrcA (Escherichia coli, UniProt P02918).
T4 construct: endogenous membrane protein in crude E. coli lysate
T4 sequence (P02918 1-850): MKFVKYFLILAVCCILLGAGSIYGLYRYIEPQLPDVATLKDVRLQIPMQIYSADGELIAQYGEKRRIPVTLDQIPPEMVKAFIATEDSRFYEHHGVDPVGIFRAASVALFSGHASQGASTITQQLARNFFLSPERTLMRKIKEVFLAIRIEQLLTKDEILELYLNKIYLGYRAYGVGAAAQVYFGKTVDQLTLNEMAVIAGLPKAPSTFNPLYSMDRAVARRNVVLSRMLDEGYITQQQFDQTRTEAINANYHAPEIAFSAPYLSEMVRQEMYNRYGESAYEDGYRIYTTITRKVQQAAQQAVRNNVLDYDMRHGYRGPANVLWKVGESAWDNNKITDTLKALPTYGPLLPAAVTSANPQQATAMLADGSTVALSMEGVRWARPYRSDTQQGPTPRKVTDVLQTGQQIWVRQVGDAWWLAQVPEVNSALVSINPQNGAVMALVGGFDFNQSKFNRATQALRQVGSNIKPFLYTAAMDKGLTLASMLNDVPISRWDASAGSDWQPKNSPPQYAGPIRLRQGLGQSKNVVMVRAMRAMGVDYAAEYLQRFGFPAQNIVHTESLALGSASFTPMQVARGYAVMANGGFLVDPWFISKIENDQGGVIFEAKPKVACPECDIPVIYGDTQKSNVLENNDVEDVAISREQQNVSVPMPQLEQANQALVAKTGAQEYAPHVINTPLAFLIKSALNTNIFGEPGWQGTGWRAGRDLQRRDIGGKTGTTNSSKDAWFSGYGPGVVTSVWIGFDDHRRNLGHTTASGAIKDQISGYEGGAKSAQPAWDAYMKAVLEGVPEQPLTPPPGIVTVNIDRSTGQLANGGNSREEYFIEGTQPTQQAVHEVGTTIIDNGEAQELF
The test is described as above. The note with it: crude E. coli lysate, 10 μM ampicillin, 25 °C, 30 min; C-terminal transpeptidase domain.

Another test deals with T5, ftsI (Escherichia coli, UniProt P0AD68).
T5 construct: endogenous membrane protein in crude E. coli lysate
T5 sequence (P0AD68 1-577): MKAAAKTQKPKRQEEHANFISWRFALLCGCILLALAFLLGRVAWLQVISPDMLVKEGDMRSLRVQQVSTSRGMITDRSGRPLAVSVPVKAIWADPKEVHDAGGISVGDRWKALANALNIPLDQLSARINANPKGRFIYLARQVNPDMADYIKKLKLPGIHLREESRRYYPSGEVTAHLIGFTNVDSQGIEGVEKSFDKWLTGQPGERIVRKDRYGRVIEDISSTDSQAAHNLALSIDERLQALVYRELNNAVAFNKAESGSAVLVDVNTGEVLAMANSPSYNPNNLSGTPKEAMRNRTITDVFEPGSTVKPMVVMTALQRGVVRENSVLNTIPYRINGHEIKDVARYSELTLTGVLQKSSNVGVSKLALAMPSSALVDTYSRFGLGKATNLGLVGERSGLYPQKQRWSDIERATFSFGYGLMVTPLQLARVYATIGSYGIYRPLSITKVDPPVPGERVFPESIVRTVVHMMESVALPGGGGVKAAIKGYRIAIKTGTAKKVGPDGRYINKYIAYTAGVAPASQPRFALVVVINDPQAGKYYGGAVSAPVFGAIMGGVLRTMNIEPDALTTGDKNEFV
Described as above. The note with it: crude E. coli lysate, 10 μM ampicillin, 25 °C, 30 min.

A further test addresses T6, pbpG (Escherichia coli, UniProt P0AFI5).
T6 construct: endogenous protein in crude E. coli lysate
T6 sequence (P0AFI5 26-310): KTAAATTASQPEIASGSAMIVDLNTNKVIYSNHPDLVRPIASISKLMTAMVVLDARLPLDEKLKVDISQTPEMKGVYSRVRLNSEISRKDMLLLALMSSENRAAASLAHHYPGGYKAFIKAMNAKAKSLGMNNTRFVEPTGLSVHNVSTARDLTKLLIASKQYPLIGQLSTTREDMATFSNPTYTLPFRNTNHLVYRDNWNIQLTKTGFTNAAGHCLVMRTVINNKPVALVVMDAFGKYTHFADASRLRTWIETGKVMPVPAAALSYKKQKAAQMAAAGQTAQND
The description is as above. The note with it: crude E. coli lysate, 10 μM ampicillin, 25 °C, 30 min.

For a further test, the target named is T7, dacB (Escherichia coli, UniProt P24228).
T7 construct: endogenous protein in crude E. coli lysate
T7 sequence (P24228 21-477): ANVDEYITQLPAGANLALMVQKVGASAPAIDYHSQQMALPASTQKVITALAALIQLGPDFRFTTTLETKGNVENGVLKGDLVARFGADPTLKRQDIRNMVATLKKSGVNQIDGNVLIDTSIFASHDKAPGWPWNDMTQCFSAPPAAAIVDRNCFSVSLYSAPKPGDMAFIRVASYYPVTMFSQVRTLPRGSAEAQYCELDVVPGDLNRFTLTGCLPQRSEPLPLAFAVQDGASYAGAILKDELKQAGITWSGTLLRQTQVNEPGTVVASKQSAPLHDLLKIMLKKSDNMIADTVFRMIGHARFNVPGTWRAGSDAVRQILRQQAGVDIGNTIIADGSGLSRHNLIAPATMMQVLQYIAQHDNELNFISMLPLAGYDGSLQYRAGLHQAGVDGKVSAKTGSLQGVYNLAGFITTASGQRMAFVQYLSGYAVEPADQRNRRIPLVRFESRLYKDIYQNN
The description is as above. The note with it: crude E. coli lysate, 10 μM ampicillin, 25 °C, 30 min.

Another test addresses T8, GuaC (Escherichia coli, UniProt P60560).
T8 construct: endogenous full-length protein in desalted E. coli lysate
T8 sequence (P60560 1-347): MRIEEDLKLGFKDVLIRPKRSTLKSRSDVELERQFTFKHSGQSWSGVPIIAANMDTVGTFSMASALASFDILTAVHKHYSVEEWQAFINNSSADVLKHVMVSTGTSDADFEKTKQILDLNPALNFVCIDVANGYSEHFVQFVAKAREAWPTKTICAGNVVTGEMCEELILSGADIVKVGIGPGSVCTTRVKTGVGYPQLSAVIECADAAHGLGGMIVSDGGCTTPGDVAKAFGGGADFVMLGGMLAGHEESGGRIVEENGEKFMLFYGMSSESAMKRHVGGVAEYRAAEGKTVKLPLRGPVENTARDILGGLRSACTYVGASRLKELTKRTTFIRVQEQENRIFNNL
Kind of test: HT-PELSA limited trypsin proteolysis MS, dose-response. The note with it: desalted E. coli lysate, Mg2+ (10 mM MgCl2 added), 25 °C, 30 min; allosteric.

T1 sequence (Q8BRK8 whole entry): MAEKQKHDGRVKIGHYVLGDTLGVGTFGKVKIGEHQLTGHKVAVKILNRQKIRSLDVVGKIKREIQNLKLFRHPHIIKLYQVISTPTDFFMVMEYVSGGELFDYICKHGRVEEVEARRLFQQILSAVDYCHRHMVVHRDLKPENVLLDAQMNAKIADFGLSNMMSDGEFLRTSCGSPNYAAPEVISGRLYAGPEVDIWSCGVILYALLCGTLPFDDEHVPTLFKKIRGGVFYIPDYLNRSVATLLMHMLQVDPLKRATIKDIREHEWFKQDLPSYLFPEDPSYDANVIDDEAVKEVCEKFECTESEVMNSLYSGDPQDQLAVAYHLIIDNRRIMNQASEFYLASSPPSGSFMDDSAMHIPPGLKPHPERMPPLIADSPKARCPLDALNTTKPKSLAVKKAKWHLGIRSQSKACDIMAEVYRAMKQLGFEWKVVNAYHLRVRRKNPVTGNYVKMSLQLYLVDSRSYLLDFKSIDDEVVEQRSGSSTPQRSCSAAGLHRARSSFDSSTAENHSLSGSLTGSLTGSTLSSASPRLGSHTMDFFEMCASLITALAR

Regarding `CCN(CC)CCNC(=O)c1c(C)[nH]c(/C=C2\C(=O)Nc3ccc(F)cc32)c1C` [sunitinib], the pEC50 entry is “the α subunit Prkaa2 of Ampk, Camk2g, Csn1ke and Csnk1g2” at α subunit Prkaa2 of Ampk; “the α subunit Prkaa2 of Ampk, Camk2g, Csn1ke and Csnk1g2” at Csn1ke.
On to `CC1(C)S[C@@H]2[C@H](NC(=O)[C@H](N)c3ccccc3)C(=O)N2[C@H]1C(=O)O` [ampicillin], for which the “HT-PELSA limited trypsin proteolysis MS, single concentration” value is “HT-PELSA identified five known targets of ampicillin (mrcA, mrcB, ftsI, dacB and pbpG” at mrcB; “HT-PELSA identified five known targets of ampicillin (mrcA, mrcB, ftsI, dacB and pbpG” at mrcA; “HT-PELSA identified five known targets of ampicillin (mrcA, mrcB, ftsI, dacB and pbpG” at ftsI; “HT-PELSA identified five known targets of ampicillin (mrcA, mrcB, ftsI, dacB and pbpG” at pbpG; “HT-PELSA identified five known targets of ampicillin (mrcA, mrcB, ftsI, dacB and pbpG” on dacB.
In the case of `Nc1ncnc2c1ncn2[C@@H]1O[C@H](COP(=O)(O)OP(=O)(O)OP(=O)(O)O)[C@@H](O)[C@H]1O` [ATP], the pEC50 entry at GuaC is “Among the non-annotated ATP binders, we identify GuaC”.
